{"source": "the kinase profiling compilation of Christmann-Franck et al. (2016)", "assay_in_all_cases": "radiometric filter-binding kinase assay, Kinase HotSpot", "conditions_in_all_cases": "compound 0.5 µM; ATP 10 µM", "key": {"[1]": {"biological_target": "IKBKE (human) (UniProt Q14164)", "sequence (Q14164 whole entry, looked up)": "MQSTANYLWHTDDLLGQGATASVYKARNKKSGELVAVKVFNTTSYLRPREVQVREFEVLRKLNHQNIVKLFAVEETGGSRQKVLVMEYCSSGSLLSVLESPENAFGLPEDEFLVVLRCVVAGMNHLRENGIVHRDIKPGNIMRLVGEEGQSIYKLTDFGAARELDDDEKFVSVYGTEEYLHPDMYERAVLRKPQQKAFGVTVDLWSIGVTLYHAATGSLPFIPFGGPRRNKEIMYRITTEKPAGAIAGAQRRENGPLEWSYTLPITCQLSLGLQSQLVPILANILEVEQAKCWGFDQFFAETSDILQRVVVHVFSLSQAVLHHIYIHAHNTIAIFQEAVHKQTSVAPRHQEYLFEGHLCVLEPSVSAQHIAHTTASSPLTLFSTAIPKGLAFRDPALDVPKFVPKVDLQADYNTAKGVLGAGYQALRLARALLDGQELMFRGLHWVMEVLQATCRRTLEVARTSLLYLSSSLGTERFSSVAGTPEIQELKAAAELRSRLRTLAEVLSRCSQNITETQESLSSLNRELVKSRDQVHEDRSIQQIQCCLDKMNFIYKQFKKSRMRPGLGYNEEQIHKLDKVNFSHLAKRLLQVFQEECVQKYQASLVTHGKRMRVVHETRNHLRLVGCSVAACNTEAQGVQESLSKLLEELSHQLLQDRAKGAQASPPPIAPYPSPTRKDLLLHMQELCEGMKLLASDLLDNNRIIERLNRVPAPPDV"}, "[2]": {"biological_target": "PLK1 (human) (UniProt P53350)"}, "[3]": {"biological_target": "PHKG1 (human) (UniProt Q16816)"}, "[4]": {"biological_target": "LCK (human) (UniProt P06239)"}, "[5]": {"biological_target": "MAPK3 (human) (UniProt P27361)", "sequence (P27361 whole entry, looked up)": "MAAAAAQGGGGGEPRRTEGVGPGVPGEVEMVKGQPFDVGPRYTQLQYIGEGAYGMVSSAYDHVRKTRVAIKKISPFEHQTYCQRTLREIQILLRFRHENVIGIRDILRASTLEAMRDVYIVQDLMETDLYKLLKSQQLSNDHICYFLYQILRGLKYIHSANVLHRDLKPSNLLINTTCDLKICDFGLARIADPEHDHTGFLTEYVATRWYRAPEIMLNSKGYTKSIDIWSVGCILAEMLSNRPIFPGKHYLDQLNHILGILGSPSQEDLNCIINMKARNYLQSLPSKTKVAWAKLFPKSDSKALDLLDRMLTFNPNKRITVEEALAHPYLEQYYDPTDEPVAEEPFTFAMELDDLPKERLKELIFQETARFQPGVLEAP"}, "[6]": {"biological_target": "DYRK3 (human) (UniProt O43781)"}, "[7]": {"biological_target": "PAK2 (human) (UniProt Q13177)"}, "[8]": {"biological_target": "MAP3K9 (human) (UniProt P80192)"}, "[9]": {"biological_target": "SGK3 (human) (UniProt Q96BR1)", "sequence (Q96BR1 whole entry, looked up)": "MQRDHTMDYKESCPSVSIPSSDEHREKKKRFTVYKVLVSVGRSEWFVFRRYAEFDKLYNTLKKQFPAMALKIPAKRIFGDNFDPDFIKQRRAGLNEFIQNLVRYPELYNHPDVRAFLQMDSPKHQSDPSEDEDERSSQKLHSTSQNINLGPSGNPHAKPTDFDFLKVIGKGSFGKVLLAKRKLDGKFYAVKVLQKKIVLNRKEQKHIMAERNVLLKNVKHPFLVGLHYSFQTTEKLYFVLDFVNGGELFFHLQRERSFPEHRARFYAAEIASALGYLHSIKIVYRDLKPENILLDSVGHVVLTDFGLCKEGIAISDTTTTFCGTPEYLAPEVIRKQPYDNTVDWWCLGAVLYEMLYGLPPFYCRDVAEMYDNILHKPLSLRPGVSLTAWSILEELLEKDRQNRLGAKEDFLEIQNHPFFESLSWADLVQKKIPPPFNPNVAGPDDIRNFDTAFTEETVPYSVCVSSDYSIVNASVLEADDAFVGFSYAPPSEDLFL"}, "[10]": {"biological_target": "NTRK3 (human) (UniProt Q16288)"}, "[11]": {"biological_target": "EPHA3 (human) (UniProt P29320)"}, "[12]": {"biological_target": "ACVRL1 (human) (UniProt P37023)", "sequence (P37023 whole entry, looked up)": "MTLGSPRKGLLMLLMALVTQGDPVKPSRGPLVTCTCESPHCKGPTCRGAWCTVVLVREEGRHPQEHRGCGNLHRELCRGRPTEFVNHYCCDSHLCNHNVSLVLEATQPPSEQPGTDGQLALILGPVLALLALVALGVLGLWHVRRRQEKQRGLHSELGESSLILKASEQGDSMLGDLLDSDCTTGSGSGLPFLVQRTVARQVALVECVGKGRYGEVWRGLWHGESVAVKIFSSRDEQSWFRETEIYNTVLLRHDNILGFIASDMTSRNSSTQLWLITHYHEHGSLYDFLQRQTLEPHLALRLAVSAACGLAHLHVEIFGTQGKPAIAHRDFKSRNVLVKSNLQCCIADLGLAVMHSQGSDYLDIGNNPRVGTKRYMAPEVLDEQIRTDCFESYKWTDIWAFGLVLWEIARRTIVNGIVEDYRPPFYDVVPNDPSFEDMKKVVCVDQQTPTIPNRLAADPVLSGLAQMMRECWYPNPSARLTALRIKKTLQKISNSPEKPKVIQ"}, "[13]": {"biological_target": "EPHA8 (human) (UniProt P29322)"}, "[14]": {"biological_target": "STK3 (human) (UniProt Q13188)", "sequence (Q13188 whole entry, looked up)": "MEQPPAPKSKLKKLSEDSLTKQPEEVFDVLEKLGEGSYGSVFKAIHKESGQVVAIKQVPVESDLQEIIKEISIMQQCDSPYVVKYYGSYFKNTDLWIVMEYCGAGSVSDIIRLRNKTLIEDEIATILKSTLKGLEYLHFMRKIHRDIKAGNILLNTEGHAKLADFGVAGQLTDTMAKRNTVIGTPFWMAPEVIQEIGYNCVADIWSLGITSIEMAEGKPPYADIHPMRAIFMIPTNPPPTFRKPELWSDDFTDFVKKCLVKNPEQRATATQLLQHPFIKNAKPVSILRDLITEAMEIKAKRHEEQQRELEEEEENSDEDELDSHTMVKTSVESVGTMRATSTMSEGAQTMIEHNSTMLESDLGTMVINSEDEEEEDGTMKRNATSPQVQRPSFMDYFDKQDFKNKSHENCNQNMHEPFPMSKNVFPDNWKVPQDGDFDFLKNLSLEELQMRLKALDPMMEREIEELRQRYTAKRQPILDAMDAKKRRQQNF"}, "[15]": {"biological_target": "NEK9 (human) (UniProt Q8TD19)"}, "[16]": {"biological_target": "ALK (human) (UniProt Q9UM73)"}, "[17]": {"biological_target": "MELK (human) (UniProt Q14680)"}, "[18]": {"biological_target": "PRKD3 (human) (UniProt O94806)"}, "[19]": {"biological_target": "GRK4 (human) (UniProt P32298)"}, "[20]": {"biological_target": "CDK5 CDK5R1 p25 (human) (UniProt Q00535+Q15078)"}, "[21]": {"biological_target": "AKT2 (human) (UniProt P31751)"}, "[22]": {"biological_target": "RPS6KA5 KD2 (human) (UniProt O75582)", "sequence (O75582 whole entry, looked up)": "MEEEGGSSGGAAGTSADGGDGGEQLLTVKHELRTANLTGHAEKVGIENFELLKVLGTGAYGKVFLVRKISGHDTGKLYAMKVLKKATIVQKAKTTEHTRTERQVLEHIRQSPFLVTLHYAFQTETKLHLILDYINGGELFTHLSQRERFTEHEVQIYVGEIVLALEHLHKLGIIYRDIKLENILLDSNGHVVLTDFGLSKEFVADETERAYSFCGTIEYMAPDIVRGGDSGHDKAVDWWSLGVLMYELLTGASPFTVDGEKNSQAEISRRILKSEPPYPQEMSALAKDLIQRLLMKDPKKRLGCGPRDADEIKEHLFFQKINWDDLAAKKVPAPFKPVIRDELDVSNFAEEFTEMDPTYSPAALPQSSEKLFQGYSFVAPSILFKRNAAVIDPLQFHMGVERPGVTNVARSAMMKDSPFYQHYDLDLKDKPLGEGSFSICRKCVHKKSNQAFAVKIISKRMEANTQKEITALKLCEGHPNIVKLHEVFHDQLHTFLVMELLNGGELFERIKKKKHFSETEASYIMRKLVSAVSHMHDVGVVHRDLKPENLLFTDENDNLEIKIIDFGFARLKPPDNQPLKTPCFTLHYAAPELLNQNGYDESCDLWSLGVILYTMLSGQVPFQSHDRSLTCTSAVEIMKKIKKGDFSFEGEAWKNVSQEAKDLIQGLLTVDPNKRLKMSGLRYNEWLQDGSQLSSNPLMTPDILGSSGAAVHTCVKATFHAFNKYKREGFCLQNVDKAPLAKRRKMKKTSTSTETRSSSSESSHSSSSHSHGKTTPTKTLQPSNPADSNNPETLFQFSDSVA"}, "[23]": {"biological_target": "PBK (human) (UniProt Q96KB5)"}, "[24]": {"biological_target": "SRC (human) (UniProt P12931)"}, "[25]": {"biological_target": "PRKCA (human) (UniProt P17252)"}, "[26]": {"biological_target": "MARK2 (human) (UniProt Q7KZI7)"}, "[27]": {"biological_target": "CLK1 (human) (UniProt P49759)", "sequence (P49759 whole entry, looked up)": "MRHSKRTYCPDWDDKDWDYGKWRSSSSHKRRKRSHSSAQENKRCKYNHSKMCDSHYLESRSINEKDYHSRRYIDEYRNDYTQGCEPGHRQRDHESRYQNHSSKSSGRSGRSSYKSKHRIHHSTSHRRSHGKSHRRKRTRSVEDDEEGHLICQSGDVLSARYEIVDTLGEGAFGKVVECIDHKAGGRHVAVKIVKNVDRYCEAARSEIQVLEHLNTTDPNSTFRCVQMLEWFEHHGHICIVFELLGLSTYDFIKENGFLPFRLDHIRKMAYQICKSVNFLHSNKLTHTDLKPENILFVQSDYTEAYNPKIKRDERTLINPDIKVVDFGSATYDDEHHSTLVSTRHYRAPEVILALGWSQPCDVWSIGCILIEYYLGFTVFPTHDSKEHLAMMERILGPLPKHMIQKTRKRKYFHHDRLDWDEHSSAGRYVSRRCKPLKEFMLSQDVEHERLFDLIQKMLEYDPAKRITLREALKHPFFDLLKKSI"}, "[28]": {"biological_target": "PHKG2 (human) (UniProt P15735)"}, "[29]": {"biological_target": "DDR2 (human) (UniProt Q16832)"}, "[30]": {"biological_target": "NLK (human) (UniProt Q9UBE8)"}, "[31]": {"biological_target": "CAMK1D (human) (UniProt Q8IU85)", "sequence (Q8IU85 whole entry, looked up)": "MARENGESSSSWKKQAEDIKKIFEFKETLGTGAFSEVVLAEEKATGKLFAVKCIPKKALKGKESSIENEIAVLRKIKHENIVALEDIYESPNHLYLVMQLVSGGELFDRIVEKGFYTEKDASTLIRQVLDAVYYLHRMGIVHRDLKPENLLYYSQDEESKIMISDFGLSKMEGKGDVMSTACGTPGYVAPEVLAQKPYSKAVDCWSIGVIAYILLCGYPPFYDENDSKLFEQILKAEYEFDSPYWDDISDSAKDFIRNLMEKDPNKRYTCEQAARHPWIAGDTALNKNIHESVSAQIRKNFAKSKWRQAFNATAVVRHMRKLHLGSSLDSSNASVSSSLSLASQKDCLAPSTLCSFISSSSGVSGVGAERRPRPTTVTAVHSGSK"}, "[32]": {"biological_target": "ZAP70 (human) (UniProt P43403)"}, "[33]": {"biological_target": "GRK6 (human) (UniProt P43250)"}, "[34]": {"biological_target": "PRKD2 (human) (UniProt Q9BZL6)"}, "[35]": {"biological_target": "IGF1R (human) (UniProt P08069)"}, "[36]": {"biological_target": "PAK7 (human) (UniProt Q9P286)"}, "[37]": {"biological_target": "MAPK14 (human) (UniProt Q16539)"}, "[38]": {"biological_target": "PAK4 (human) (UniProt O96013)"}, "[39]": {"biological_target": "MAPK10 (human) (UniProt P53779)"}, "[40]": {"biological_target": "HIPK2 (human) (UniProt Q9H2X6)"}, "[41]": {"biological_target": "MLTK (human) (UniProt Q9NYL2)"}, "[42]": {"biological_target": "CSK (human) (UniProt P41240)", "sequence (P41240 whole entry, looked up)": "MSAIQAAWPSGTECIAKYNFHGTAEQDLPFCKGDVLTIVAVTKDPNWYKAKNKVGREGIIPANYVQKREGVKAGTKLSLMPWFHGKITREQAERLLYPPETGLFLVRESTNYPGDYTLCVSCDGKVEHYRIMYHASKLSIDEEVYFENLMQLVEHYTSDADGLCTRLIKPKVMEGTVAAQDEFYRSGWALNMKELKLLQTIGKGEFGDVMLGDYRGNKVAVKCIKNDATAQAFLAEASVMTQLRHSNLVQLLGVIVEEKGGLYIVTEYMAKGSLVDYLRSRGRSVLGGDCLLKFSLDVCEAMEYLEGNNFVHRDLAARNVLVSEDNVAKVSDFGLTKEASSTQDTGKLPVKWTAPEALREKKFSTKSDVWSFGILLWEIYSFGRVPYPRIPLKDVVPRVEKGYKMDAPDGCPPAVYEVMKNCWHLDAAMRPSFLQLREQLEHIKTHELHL"}}}
{"compound": "Cc1nc(-c2ccccc2)c(-c2ccncc2)o1", "values": [{"measurement": "residual activity", "setting": "[1]", "value": 102, "unit": "%"}, {"measurement": "residual activity", "setting": "[2]", "value": 104, "unit": "%"}, {"measurement": "residual activity", "setting": "[3]", "value": 96.1, "unit": "%"}, {"measurement": "residual activity", "setting": "[4]", "value": 99.7, "unit": "%"}, {"measurement": "residual activity", "setting": "[5]", "value": 103, "unit": "%"}, {"measurement": "residual activity", "setting": "[6]", "value": 105, "unit": "%"}, {"measurement": "residual activity", "setting": "[7]", "value": 82.3, "unit": "%"}, {"measurement": "residual activity", "setting": "[8]", "value": 79.4, "unit": "%"}, {"measurement": "residual activity", "setting": "[9]", "value": 96.4, "unit": "%"}, {"measurement": "residual activity", "setting": "[10]", "value": 105, "unit": "%"}, {"measurement": "residual activity", "setting": "[11]", "value": 109, "unit": "%"}, {"measurement": "residual activity", "setting": "[12]", "value": 95.9, "unit": "%"}, {"measurement": "residual activity", "setting": "[13]", "value": 78.8, "unit": "%"}, {"measurement": "residual activity", "setting": "[14]", "value": 104, "unit": "%"}, {"measurement": "residual activity", "setting": "[15]", "value": 97.2, "unit": "%"}, {"measurement": "residual activity", "setting": "[16]", "value": 108, "unit": "%"}, {"measurement": "residual activity", "setting": "[17]", "value": 105, "unit": "%"}, {"measurement": "residual activity", "setting": "[18]", "value": 94.3, "unit": "%"}, {"measurement": "residual activity", "setting": "[19]", "value": 94.3, "unit": "%"}, {"measurement": "residual activity", "setting": "[20]", "value": 97, "unit": "%"}, {"measurement": "residual activity", "setting": "[21]", "value": 96.7, "unit": "%"}, {"measurement": "residual activity", "setting": "[22]", "value": 107, "unit": "%"}, {"measurement": "residual activity", "setting": "[23]", "value": 110, "unit": "%"}, {"measurement": "residual activity", "setting": "[24]", "value": 96.2, "unit": "%"}, {"measurement": "residual activity", "setting": "[25]", "value": 98.3, "unit": "%"}, {"measurement": "residual activity", "setting": "[26]", "value": 94.3, "unit": "%"}, {"measurement": "residual activity", "setting": "[27]", "value": 105, "unit": "%"}, {"measurement": "residual activity", "setting": "[28]", "value": 97.6, "unit": "%"}, {"measurement": "residual activity", "setting": "[29]", "value": 97.4, "unit": "%"}, {"measurement": "residual activity", "setting": "[30]", "value": 79.4, "unit": "%"}, {"measurement": "residual activity", "setting": "[31]", "value": 93.9, "unit": "%"}, {"measurement": "residual activity", "setting": "[32]", "value": 98.8, "unit": "%"}, {"measurement": "residual activity", "setting": "[33]", "value": 105, "unit": "%"}, {"measurement": "residual activity", "setting": "[34]", "value": 97.7, "unit": "%"}, {"measurement": "residual activity", "setting": "[35]", "value": 99.9, "unit": "%"}, {"measurement": "residual activity", "setting": "[36]", "value": 96.1, "unit": "%"}, {"measurement": "residual activity", "setting": "[37]", "value": 76.3, "unit": "%"}, {"measurement": "residual activity", "setting": "[38]", "value": 101, "unit": "%"}, {"measurement": "residual activity", "setting": "[39]", "value": 101, "unit": "%"}, {"measurement": "residual activity", "setting": "[40]", "value": 95.5, "unit": "%"}, {"measurement": "residual activity", "setting": "[41]", "value": 89, "unit": "%"}, {"measurement": "residual activity", "setting": "[42]", "value": 107, "unit": "%"}]}
{"compound": "CCCCc1c(-c2ccc(OC)cc2)[nH]c2nccnc12", "values": [{"measurement": "residual activity", "setting": "[1]", "value": 100, "unit": "%"}, {"measurement": "residual activity", "setting": "[2]", "value": 104, "unit": "%"}, {"measurement": "residual activity", "setting": "[3]", "value": 89.4, "unit": "%"}, {"measurement": "residual activity", "setting": "[4]", "value": 85, "unit": "%"}, {"measurement": "residual activity", "setting": "[5]", "value": 111, "unit": "%"}, {"measurement": "residual activity", "setting": "[6]", "value": 96.1, "unit": "%"}, {"measurement": "residual activity", "setting": "[7]", "value": 97.5, "unit": "%"}, {"measurement": "residual activity", "setting": "[8]", "value": 39.8, "unit": "%"}, {"measurement": "residual activity", "setting": "[9]", "value": 98.6, "unit": "%"}, {"measurement": "residual activity", "setting": "[10]", "value": 84.4, "unit": "%"}, {"measurement": "residual activity", "setting": "[11]", "value": 91.9, "unit": "%"}, {"measurement": "residual activity", "setting": "[12]", "value": 77, "unit": "%"}, {"measurement": "residual activity", "setting": "[13]", "value": 103, "unit": "%"}, {"measurement": "residual activity", "setting": "[14]", "value": 87, "unit": "%"}, {"measurement": "residual activity", "setting": "[15]", "value": 106, "unit": "%"}, {"measurement": "residual activity", "setting": "[16]", "value": 96.7, "unit": "%"}, {"measurement": "residual activity", "setting": "[17]", "value": 84.4, "unit": "%"}, {"measurement": "residual activity", "setting": "[18]", "value": 88.5, "unit": "%"}, {"measurement": "residual activity", "setting": "[19]", "value": 96.7, "unit": "%"}, {"measurement": "residual activity", "setting": "[20]", "value": 41.3, "unit": "%"}, {"measurement": "residual activity", "setting": "[21]", "value": 93.8, "unit": "%"}, {"measurement": "residual activity", "setting": "[22]", "value": 104, "unit": "%"}, {"measurement": "residual activity", "setting": "[23]", "value": 80.6, "unit": "%"}, {"measurement": "residual activity", "setting": "[24]", "value": 58.8, "unit": "%"}, {"measurement": "residual activity", "setting": "[25]", "value": 92.7, "unit": "%"}, {"measurement": "residual activity", "setting": "[26]", "value": 83.1, "unit": "%"}, {"measurement": "residual activity", "setting": "[27]", "value": 102, "unit": "%"}, {"measurement": "residual activity", "setting": "[28]", "value": 106, "unit": "%"}, {"measurement": "residual activity", "setting": "[29]", "value": 94.3, "unit": "%"}, {"measurement": "residual activity", "setting": "[30]", "value": 88.4, "unit": "%"}, {"measurement": "residual activity", "setting": "[31]", "value": 97.9, "unit": "%"}, {"measurement": "residual activity", "setting": "[32]", "value": 74.2, "unit": "%"}, {"measurement": "residual activity", "setting": "[33]", "value": 88.3, "unit": "%"}, {"measurement": "residual activity", "setting": "[34]", "value": 101, "unit": "%"}, {"measurement": "residual activity", "setting": "[35]", "value": 83.9, "unit": "%"}, {"measurement": "residual activity", "setting": "[36]", "value": 88.1, "unit": "%"}, {"measurement": "residual activity", "setting": "[37]", "value": 112, "unit": "%"}, {"measurement": "residual activity", "setting": "[38]", "value": 107, "unit": "%"}, {"measurement": "residual activity", "setting": "[39]", "value": 97.2, "unit": "%"}, {"measurement": "residual activity", "setting": "[40]", "value": 109, "unit": "%"}, {"measurement": "residual activity", "setting": "[41]", "value": 83.6, "unit": "%"}, {"measurement": "residual activity", "setting": "[42]", "value": 87, "unit": "%"}]}
